Structures can show the parent of a compound that is named as a salt.
Molecular target: T1, human B1 (Homo sapiens, UniProt P46663)
T1 construct: host or cells: CHO-K1
T1 sequence (P46663 1-353): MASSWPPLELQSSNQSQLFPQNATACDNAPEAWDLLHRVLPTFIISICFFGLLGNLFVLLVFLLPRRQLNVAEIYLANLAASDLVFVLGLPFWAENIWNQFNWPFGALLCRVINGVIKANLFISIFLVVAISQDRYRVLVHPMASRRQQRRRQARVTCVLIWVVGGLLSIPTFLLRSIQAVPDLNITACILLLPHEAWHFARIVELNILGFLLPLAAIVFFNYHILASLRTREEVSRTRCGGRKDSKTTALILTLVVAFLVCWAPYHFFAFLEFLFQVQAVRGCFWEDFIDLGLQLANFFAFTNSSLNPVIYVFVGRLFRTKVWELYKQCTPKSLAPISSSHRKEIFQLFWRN
Test: Calcium flux assay for Bradykinin B1 antagonist, CHO-K1 cell line expressing human B1
Assay type: cell-based
Details: CHO-K1 cells expressing human B1, agonist Lys-(Des-Arg)-Bradykinin, read-out: Potency (IC50 value against human B1)
Method in brief: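 CHO-K1 cells expressing human B1, loaded with 5 μM Fluo-4AM (2 h, 37° C) in HEPES buffer pH 7.4 with probenecid and 0.1% BSA, were preincubated 30 min at 25° C with compound (8 concentrations, triplicate, 1% DMSO) before B1 agonist addition. Ca2+ fluorescence monitored at 538 nm; background-normalized integrated values plotted against log antagonist concentration.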

| SMILES | IC50 [nM] |
| --- | --- |
| COc1cc(C)c(S(=O)(=O)N(Cc2nc(C(=O)N3CC4CCN(C5CCN(C)CC5)CC4C3)co2)C2CC2)c(C)c1 (stereo not drawn) [Ex 206, N-Cyclopropyl-4-methoxy-2,6-dimethyl-N-[(4-{[5-(1-methylpiperidin-4-yl)octahydro-2H-pyrrolo[3,4-c]pyridin-2-yl]carbonyl}-1,3-oxazol-2-yl)methyl]benzenesulfonamide trifluoroacetate] | 100 to 1000 |
| Cc1cc(S(=O)(=O)N(Cc2nc(C(=O)N(C)Cc3ccc(CN4CCCC4)cc3)co2)C2CC2)c(C)cc1Cl [Ex 218, 2-({[(4-Chloro-2,5-dimethylphenyl)sulfonyl](cyclopropyl)amino}methyl)-N-methyl-N-[4-(pyrrolidin-1-ylmethyl)benzyl]-1,3-oxazole-4-carboxamide trifluoroacetate] | 100 to 1000 |
| COc1cc(C)c(S(=O)(=O)N(C)Cc2cc(C(=O)N(C)Cc3ccc(C4=NCCN4)cc3)co2)c(C)c1 [Ex 29, N-[4-(4,5-dihydro-1H-imidazol-2-yl)benzyl]-5-({[(4-methoxy-2,6-dimethylphenyl)sulfonyl](methyl)amino}methyl)-N-methylfuran-3-carboxamide] | < 10 |
| CN(Cc1cc(C(=O)NCCc2ccc(C3=NCCN3)cc2)co1)S(=O)(=O)c1c(Cl)cc(Br)cc1Cl [Ex 25, 5-({[(4-bromo-2,6-dichlorophenyl)sulfonyl](methyl)amino}methyl)-N-{2-[4-(4,5-dihydro-1H-imidazol-2-yl)phenyl]ethyl}furan-3-carboxamide] | 100 to 1000 |
| COc1cc(C)c(S(=O)(=O)N(Cc2nc(C(=O)N(C)C3CCCC(N4CCN(C)CC4)C3)co2)C2CC2)c(C)c1 (stereo not drawn) [Ex 244, 2-({Cyclopropyl[(4-methoxy-2,6-dimethylphenyl)sulfonyl]amino}methyl)-N-methyl-N-[3-(4-methylpiperazin-1-yl)cyclohexyl]-1,3-oxazole-4-carboxamide] | < 10 |
| COc1cc(C)c(S(=O)(=O)N(Cc2nc(C(=O)N3CCC(N(C)C4CCN(C)CC4)C3)co2)C2CC2)c(C)c1 (stereo not drawn) [Ex 208, N-Cyclopropyl-4-methoxy-2,6-dimethyl-N-{[4-({3-[methyl(1-methylpiperidin-4-yl)amino]pyrrolidin-1-yl}carbonyl)-1,3-oxazol-2-yl]methyl}benzenesulfonamide trifluoroacetate] | 100 to 1000 |
| COc1cc(C)c(S(=O)(=O)N(Cc2cc(C(=O)N(C)Cc3ccc(CN4CCC(C(=O)N(C)C)C4)cc3)co2)C2CC2)c(C)c1 (stereo not drawn) [Ex 147, 1-(4-{[{[5-({Cyclopropyl[(4-methoxy-2,6-dimethylphenyl)sulfonyl]amino}methyl)furan-3-yl]carbonyl}(methyl)amino]methyl}benzyl)-N,N-dimethylpyrrolidine-3-carboxamide] | 10 to 100 |
| COc1cc(C)c(S(=O)(=O)N(Cc2nc(C(=O)N(C)Cc3ccc(CN4CCCC4)nc3)co2)C2CC2)c(C)c1 [Ex 203, 2-({Cyclopropyl[(4-methoxy-2,6-dimethylphenyl)sulfonyl]amino}methyl)-N-methyl-N-{[6-(pyrrolidin-1-ylmethyl)pyridin-3-yl]methyl}-1,3-oxazole-4-carboxamide] | < 10 |
| COc1cc(C)c(S(=O)(=O)N(Cc2noc(C(=O)N3CCN(CCCN(C)C)CC3)n2)C2CC2)c(C)c1 [Ex 316, N-Cyclopropyl-N-{[5-([4-[3-(dimethylamino)propyl]piperazin-1-yl]carbonyl)-1,2,4-oxadiazol-3-yl]methyl}-4-methoxy-2,6-dimethylbenzenesulfonamide] | 10 to 100 |
| COc1cc(C)c(S(=O)(=O)N(Cc2nc(C(=O)N3CCN(Cc4ccnc(N5CCCC5)c4)CC3)co2)C2CC2)c(C)c1 [Ex 256, N-Cyclopropyl-4-methoxy-2,6-dimethyl-N-{[4-({4-[(2-pyrrolidin-1-ylpyridin-4-yl)methyl]piperazin-1-yl}carbonyl)-1,3-oxazol-2-yl]methyl}benzenesulfonamide] | 100 to 1000 |
| COc1cc(C)c(S(=O)(=O)N(C)Cc2cc(C(=O)NCCc3ccc(Nc4nccc(N)n4)cc3)co2)c(C)c1 [Ex 44, N-(2-{4-[(4-aminopyrimidin-2-yl)amino]phenyl}ethyl)-5-({[(4-methoxy-2,6-dimethylphenyl)sulfonyl](methyl)amino}methyl)furan-3-carboxamide] | 100 to 1000 |
| COc1cc(C)c(S(=O)(=O)N(C)Cc2cc(C(=O)N(C)Cc3ccc(CN4CCC(OC)C4)cc3)co2)c(C)c1 (stereo not drawn) [Ex 129, 5-({[(4-Methoxy-2,6-dimethylphenyl)sulfonyl](methyl)amino}methyl)-N-{4-[(3-methoxypyrrolidin-1-yl)methyl]benzyl}-N-methylfuran-3-carboxamide] | 100 to 1000 |

— patent publication US8623859B2, “Bradykinin B1 antagonists” (Evotec AG, priority 2008, dated 2014)
